Values of other authors, collected in patent US7981441B2, “Drug delivery systems using mesoporous oxide films” (The Board of Trustees of the Leland Stanford Junior …, priority 2004, dated 2011).

Assays:
[1] = test system: rabbit neointimal hyperplasia; details: pLA/pCL copolymer-coated stents containing 200 μg of paclitaxel; months after stent implantation
[2] = test system: porcine neointimal hyperplasia; details: bare stent, dip-coating; 0, 0.2, 15 and 187 μg/stent; at 4 weeks
[3] = 4 to six acrylate sleeves each loaded with 800 micrograms

Row | Compound | effect on rabbit neointimal hyperplasia [1] | effect on porcine neointimal hyperplasia [2] | clinical outcome of study [3]
1 | CC(=O)O[C@H]1C(=O)[C@@]2(C)[C@H]([C@H](OC(=O)c3ccccc3)[C@]3(O)C[C@H](OC(=O)[C@H](O)[C@@H](NC(=O)c4ccccc4)c4ccccc4)C(C)=C1C3(C)C)[C@]1(OC(C)=O)CO[C@@H]1C[C@@H]2O [paclitaxel] | virtually abolished | significant dose-dependent inhibition | 
2 | CCCCCC(=O)O[C@H]1C[C@H]2OC[C@@]2(OC(C)=O)[C@H]2[C@H](OC(=O)c3ccccc3)[C@]3(O)C[C@H](OC(=O)[C@H](O)[C@@H](NC(=O)c4ccccc4)c4ccccc4)C(C)=C([C@@H](OC(C)=O)C(=O)[C@]12C)C3(C)C [7-hexanoyltaxol] |  |  | clinically unpromising
